Experimental data taken from patent publication US7132296B2, “Method for assaying the antioxidant capacity of a sample” (Medical Products Manufacturing, LLC, priority 2002, dated 2006).

Columns and labels:
[1] = ORAC assay with fluorescein probe (ORACFL), peroxyl radical scavenging assay; format: biochemical; conditions: for Ratio (ORACFL/ORACB-PE): chemicals, Table 1; for ORACFL: fluorescein probe, calculated based on equation 2, n > 3
Procedure: (§1) In accordance with the subject invention the area under the curve (AUC) for the sample, standard, and blank are calculated as: AUC=0.5+f1/f0+f2/f0+f3/f0+f4/f0+ . . . +fi/f0 (1) Where f0=initial fluorescence reading at 0 minute, and fi is the fluorescence reading at time i. Typically, equation (1) is solved and the data analyzed in an electronic spreadsheet such as Microsoft Excel or other similar products or computer programs. The AUC is calculated for sample 60, standard 62 and blank 64. The net AUC is obtained by subtracting the AUC of blank 64 from sample 60. The relative ORAC value for sample 60, expressed in Trolox equivalents is calculated as: Relative ORAC value=[(AUCsample−AUCBlank)/(AUCTrolox−AUCBlank)]×(molarity of Trolox/molarity of sample) (2)
Flavonoid compounds and β-phycoerythrin were purchased from Sigma (St. Louis, Mo.). Trolox, ascorbic acid and disodium fluorescein were obtained from Aldrich (Milwaukee, Wis.). 2,2′-azobis (2-amidino-propane) dihydrochloride (AAPH) was purchased from Wako Chemicals USA (Richmond, Va.). Various analyzed samples were also obtained. ORAC analyses were performed on a COBAS FARA II analyzer (Roche Diagnostic System Inc., Branchburg, N.J.; Excitation wavelength=493 nm and emission filter=515 nm).
Ascorbic acid and flavonoids were directly dissolved in acetone/water mixture (50:50, v/v) and diluted with pH 7.4 phosphate buffer for analysis. The solid samples were initially ground in a mechanical mill to produce a fine power; then 0.5 grams were accurately weighed and 20 mL of acetone/water (50:50, v/v) extraction solvent was added. The mixture was shaken at 400 RPM at room temperature on an orbital shaker for one hour. The extracts were centrifuged at 14000 rpm for 15 min, and the supernatant was ready for analysis after appropriate dilution with buffer solution. For liquid samples, a 20 mL aliquot of sample was centrifuged for 15 min and the supernatant was ready for analysis after appropriate dilution. Blood plasma or serum was diluted 100 to 200 fold with pH 7.4 phosphate buffer before analysis. To measure the ORAC in non-protein fraction, protein was removed using 0.5 N perchloric acid (1:1; v:v; plasma:acid), the samples were then centrifuged at 140,000×g for 10 min at 4° C., and the supernatants were removed as the serum nonprotein fractions and appropriately diluted with pH 7.4 phosphate buffer before the analysis.
Peroxyl radical scavenging assay. The COBAS FARA II was programmed to use a two-reagent system (Reaction Mode 3, P-I-SRI-A). The reaction mode pipetted and transferred the sample (20 μL), phosphate buffer (5 μL, 0.75 mM, pH 7.4), and main reagent (365 μL FL, 4.8×10^−8 M) into the main reagent wells of their respective cuvette rotor positions. With spinning of the rotor, the reagents are mixed and incubated for 30 s before recording the initial fluorescence (f0). After the rotor stops spinning, a start reagent (SRI), 8 μL of APPH (0.64M) plus 2 μL of the phosphate buffer is pipetted into the appropriate start reagent well in the curvette rotor. Next, the analyzer starts spinning, mixing of the sample/FL with AAPH reagent and the oxidative reaction starts. […] Between transfers, both sample and reagent transfer pipettes are washed with clean solution to eliminate sample cross contamination. Fluorescence readings are taken at 0.5 s and then every minute thereafter (f1, f2, f3 . . . ) for a duration of 30 min. If the fluorescence of the final reading has not declined by >95% from the first reading, the dilution of sample is adjusted accordingly and the sample is reanalyzed. To determine the maximum voltage for the photomultiplier tube, the AAPH reagent is omitted and is replaced with buffer, and the analysis is run for 10 min. FL and AAPH were prepared in a 0.75 mM phosphate buffer. FL working solution was routinely preincubated in a waterbath at 37° C. for 15 min before loading into the COBAS reagent rack.

[2] = ORAC assay with B-phycoerythrin probe (ORACB-PE / ORACPE); format: biochemical; conditions: calculated based on equation 2, n > 3
Procedure: In accordance with the published ORAC assay, a sample such as fresh fruit, blood senun, or an additive or supplement in powder form is prepared for extraction and extracted first in water and then in acetone. A protein based fluorescent probe, namely B-phycoerythrin (B-PE) is then added to the extract. A standard, having high antioxidant capacity, such as diluted grape seed extract (GSE) or TROLOX® (6-hydroxy-2,5,7,8-tetramethylchroman-2-carboxylic acid), a water soluble analog of vitamin E, is added to the extract to provide a comparison of the antioxidant capacity of the sample to the standard. The extract, the standard, and a blank sample are then loaded into the COBAS FARA II device and an initial fluorescence emission of the probe is taken. Next, AAPH, (2,2′-azobis (2-amidino-propane) dihydrochloride), which generates free radicals upon heating, is added to the extract of the sample and the standard and fluorescence emission readings are taken until a zero value is reached for the extract of the sample. To measure the protective effect of an antioxidant using the ORAC assay, the area under the fluorescence decay curve (AUC) of the sample is calculated and compared to that of the blank in which no antioxidant is present.
After the fluorescent readings are taken, the ORAC values are calculated by using a regression equation between standard concentration 62, FIG. 7, and the net area under the B-PE decay curve of sample 60. ORAC values are typically expressed in μmole Trolox equivalent per liter or per gram.
as §1

Compound | Ratio (ORACFL/ORACB-PE) [1] | ORACFL [1] | ORACB-PE [2]
O=C(O)/C=C/c1ccc(O)c(O)c1 [Caffeic Acid] | 3.12 | 4.37 ± 0.24 relative Trolox equivalent | 1.40 ± 0.09 relative Trolox equivalent
O=c1c(-c2ccc(O)cc2)coc2cc(O)cc(O)c12 [Genistein] | 2.57 | 5.93 ± 0.45 relative Trolox equivalent | 2.3 ± 0.16 relative Trolox equivalent
N[C@@H](CCC(=O)N[C@@H](CS)C(=O)NCC(=O)O)C(=O)O [Glutathione] | 1.94 | 0.62 ± 0.02 relative Trolox equivalent | 0.32 ± 0.01 relative Trolox equivalent
O=c1c(O)c(-c2ccc(O)c(O)c2)oc2cc(O)cc(O)c12 [Quercetin] | 2.11 | 4.38 ± 0.22 relative Trolox equivalent | 2.07 ± 0.05 relative Trolox equivalent
C[C@@H]1O[C@@H](Oc2c(-c3ccc(O)c(O)c3)oc3cc(O)cc(O)c3c2=O)[C@H](O)[C@H](O)[C@H]1O [Quercetrin] | 2.15 | 5.87 ± 0.49 relative Trolox equivalent | 2.70 ± 0.18 relative Trolox equivalent
O=C1O[C@H]([C@@H](O)CO)C(O)=C1O [Vitamin C] | 2.21 | 0.95 ± 0.02 relative Trolox equivalent | 0.43 ± 0.03 relative Trolox equivalent
